In patent EP0753300B1, “Use of antioxidative steroids for the manufacture of pharmaceutical preparations for substition therapy in man” (priority 1995, dated 1997):

What was measured:
[1] = tested on: VCAM-1; assay: Inhibition of TNFα-induced VCAM-1 expression in cultured endothelial cells (histological assessment); assay type: cell-based, humanen Ursprungs; conditions: cultured human endothelial cells
Description: (§1) J. Clin. Endocrinol. Metab. 7:1619-1624 (1994) ausgeführt. Als Vergleich zu […] 17β-Estradiol, welches mit (x) gekennzeichnet wurde. Tabelle 1

[2] = tested on: ICAM-1; assay: Inhibition of TNFα-induced ICAM-1 expression in cultured endothelial cells (histological assessment); assay type: cell-based, humanen Ursprungs; design: key: +: wenig wirksam; ++: gut wirksam; +++: sehr gut wirksam; conditions: cultured human endothelial cells
Description: as §1

[3] = Adjuvant arthritis in male rats, oral, 21 days; assay type: in vivo, Lewis-Ratten; conditions: for Sekundärarthritis Score: 8 per group, group sum, max. 72 (arthritic control); for % Hemmung Primärarthritis max. Wirkung: swelling of injected left hind paw
Protocol: Die Adjuvansarthritis bei Lewis-Ratten ist ein gut bekanntes und etabliertes Modell für die chronische Rheumatoid-Arthritis des Menschen [Newbould BB: Chemotherapy of arthritis induced in rats by mycobacterial adjuvant. Br. J. Pharmacol. 21:127-136 (1963); Hirschelmann R: Die 6-Sulfanilamidoindazol-Arthritis und die Adjuvansarthritis der Ratte als Modelle zur Testung von Antiphlogistika. Dissertation B (Habil.-Schrift), Halle, 1976]
Die Arthritis wurde durch Injektion von 0,1 ml Freund'sches Adjuvans in die linke Hinterpfote ausgelöst. Prüfparameter waren die Hemmung der Schwellung der linken Hinterpfote und der Grad der Sekundärarthritis durch Beurteilung der Schwellung der drei anderen Pfoten. Tabelle 3

[4] = assay type: in vivo, Mann
Description: Die aufgezeigten Systeme […] Studie an ä[…]. […] Alter von 52 bis 63 Jahren über 6 Monate […] Probanden nahm eine weitere Medikation ein. Bei 6 der 12 Probanden ergab […]-, Leber- und […] vor Beginn der Studie bei allen Probanden unauffällig. Auch die Plasma-[…] Testosteron > 12 nmol/[…] Testosteron > 0,2 nmol/[…] 6 Probanden […] OGTT erhöhte Gesamtcholesterol- und […] die In-vivo-Bestimmung der LDL-Cholesterol-Oxidation und die Hormonanalysen wurden zu Studienbeginn, danach wöchentlich und einen Tag […] und morgendlichem Fasten jeweils zwischen 8 und 10 Uhr morgens).

[5] = Pentetrazol kindling, seizure stages in male mice; assay type: in vivo, Mäuse
Protocol: Aus Tabelle 2 ist ersichtlich, daß J 861 - 14,15α-Methylen-8-dehydro-17α-estradiol z.B. bereits in einer Dosierung von 1 mg/kg nach einmaliger oraler Gabe eine Stunde vor der krampfauslösenden Pentetrazol-Injektion an männlichen Mäusen das Krampfstadium 3 hemmt. In steigender Dosierung und bei längerer Substanzapplikation werden auch die anderen Krampfstadien beeinflußt.

[6] = Carrageenin paw oedema of the male rat; assay type: in vivo, Ratte; conditions: 24 hours after provocation of the oedema, inflammation no longer acute
[7] = molecular target: T1, Estrogen-Rezeptor (Oryctolagus cuniculus, UniProt G1SML6); assay: Estrogen receptor affinity, competitive binding with [3H]-Ethinylestradiol in uterus cytosol; design: species or system Kaninchen; conditions: quotient of IC50 of 17β-Estradiol and of test substance; rabbit uterus cytosol; tracer [3H]-Ethinylestradiol 3 nM; 0 to 4 °C, 18 h
T1 construct: Es wurden weibliche Kaninchen (weiße Neuseeländer) im Gewicht von 1,5 bis 2 kg in Barbituratnarkose getötet, die Uteri entnommen; from tissue; host or cells: rabbit uterus cytosol (100 000 g supernatant of the homogenate)
T1 sequence (G1SML6 1-598): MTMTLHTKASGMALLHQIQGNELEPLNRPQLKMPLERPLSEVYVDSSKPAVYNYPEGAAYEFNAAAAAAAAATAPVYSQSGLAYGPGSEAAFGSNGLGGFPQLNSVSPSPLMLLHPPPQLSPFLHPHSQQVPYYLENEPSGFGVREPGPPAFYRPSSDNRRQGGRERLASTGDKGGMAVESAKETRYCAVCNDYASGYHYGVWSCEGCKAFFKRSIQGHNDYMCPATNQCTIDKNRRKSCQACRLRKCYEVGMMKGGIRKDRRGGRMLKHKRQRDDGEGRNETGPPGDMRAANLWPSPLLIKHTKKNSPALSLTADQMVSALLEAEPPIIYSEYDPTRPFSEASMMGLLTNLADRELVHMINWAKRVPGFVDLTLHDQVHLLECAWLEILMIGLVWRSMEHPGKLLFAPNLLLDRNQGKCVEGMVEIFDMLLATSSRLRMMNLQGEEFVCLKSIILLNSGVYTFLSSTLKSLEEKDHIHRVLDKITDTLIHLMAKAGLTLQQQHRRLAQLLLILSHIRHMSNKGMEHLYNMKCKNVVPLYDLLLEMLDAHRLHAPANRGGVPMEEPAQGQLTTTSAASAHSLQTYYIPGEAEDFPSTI
Protocol: Die Affinität zum Estrogen Rezeptor wurde in Kaninchen-Uterus-Cytosol bestimmt durch competitive Bindung von ^3H-markiertem Tracer und der jeweils zu testenden Verbindungen in Konzentrationsreihen, die die IC50 einschlossen. […] Das nach Zentrifugieren bei 16 000 g und 100 000 g gewonnene Cytosol wurde portionsweise schockgefroren und bei -30 °C aufbewahrt. Das geeignet verdünnte Cytosol (Rezeptorkonzentration ca. 0,3 nM) wurde mit dem Tracer [^3H]-Ethinylestradiol (3nM) und den zu prüfenden Competitoren bei 0 bis 4 °C für 18 Stunden inkubiert. Der freie Tracer wurde durch Adsorption an Aktivkohle/Dextran (1 %/0,1 %) und Zentrifugation abgetrennt und die gebundene ^3H-Aktivität im Überstand gemessen.

[8] = 1,0 mg/kg, single oral dose one hour before pentetrazol

## C[C@]12CC[C@@H]3c4ccc(O)cc4CC[C@H]3[C@@H]1CC[C@H]2O [17α-Estradiol]
[1]
  Hemmung der Expression von VCAM-1: + +
[2]
  Hemmung der Expression von ICAM-1: + +
[3]; 1 mg/kg oral
  Sekundärarthritis Score: 43
  % Hemmung Primärarthritis max. Wirkung: 36%
[3]; 10 mg/kg oral
  Sekundärarthritis Score: 35
  % Hemmung Primärarthritis max. Wirkung: 39%
[4]; 2 mg daily, 6 months, older men, includes missing SHBG rise
  Einfluß auf die gewählten Hormonparameter: nicht signifikant beeinflußt
[4]; 2 mg daily, 6 months, reported by subjects
  Schlafqualität und Libido: Verbesserung
[4]; Versuchsende, after 6 months 2 mg daily, 12 overweight men 52-63 years, Versuchsbeginn 0.32 ± 0.14
  Freies Testosteron: 0.33 ± 0.15 nmol/L
[4]; Versuchsende, after 6 months 2 mg daily, 12 overweight men 52-63 years, Versuchsbeginn 14.3 ± 10.6
  DHEA: 13.46 ± 8.13 nmol/L
[4]; Versuchsende, after 6 months 2 mg daily, 12 overweight men 52-63 years, Versuchsbeginn 16.5 ± 4.6
  Gesamt-Testosteron: 15.6 ± 5.1 nmol/L
[4]; Versuchsende, after 6 months 2 mg daily, 12 overweight men 52-63 years, Versuchsbeginn 17 ± 10
  Insulin: 15 ± 9 mlE/L
[4]; Versuchsende, after 6 months 2 mg daily, 12 overweight men 52-63 years, Versuchsbeginn 38 ± 17
  SHBG: 39 ± 18 nmol/L
[4]; Versuchsende, after 6 months 2 mg daily, 12 overweight men 52-63 years, Versuchsbeginn 5412 ± 3711
  DHEAS: 5660 ± 3292 nmol/L
[4]; Versuchsende, after 6 months 2 mg daily, Versuchsbeginn 6.0 ± 1.0
  Lp(a): 5.7 ± 0.7 mg/dL
[4]; Versuchsende, after 6 months 2 mg daily, Versuchsbeginn 154 ± 10.5
  LDL-Cholesterol: 135 ± 5.2 mg/dL
[4]; Versuchsende, after 6 months 2 mg daily, Versuchsbeginn 225 ± 11.1, p<0.05
  Gesamt-Cholesterol: 195 ± 5.7 mg/dL
[4]; Versuchsende, after 6 months 2 mg daily, Versuchsbeginn 226 ± 31.1, p<0.05
  Triglyceride: 132 ± 1.5 mg/dL
[4]; older men under 17α-Estradiol, blood samples, figures not given
  LDL-Cholesterol-Oxidation: deutliche Verzögerung

## C[C@]12CC[C@@H]3c4ccc(O)cc4CC[C@H]3[C@@H]1CC[C@@H]2O [17β-Estradiol, reference compound]
[1]
  Hemmung der Expression von VCAM-1: + +
[2]
  Hemmung der Expression von ICAM-1: +
[3]; 1 mg/kg oral
  Sekundärarthritis Score: 47
  % Hemmung Primärarthritis max. Wirkung: 21%
[3]; 10 mg/kg oral
  Sekundärarthritis Score: 36
  % Hemmung Primärarthritis max. Wirkung: 35%

## NC(=O)N1c2ccccc2C=Cc2ccccc21 [Carbamazepin, reference compound]
[5]; 24 mg/kg
  Krampfstadien 1/2 Kl (Krampfindex gesenkt): -
  Krampfstadien 1/2 LZ[s] (Latenzzeit bis zur Ausprägung der Krämpfe erhöht): +
  Krampfstadien 3 Kl (Krampfindex gesenkt): -
  Krampfstadien 3 LZ[s] (Latenzzeit bis zur Ausprägung der Krämpfe erhöht): +
  Krampfstadien 4/5/6 Kl (Krampfindex gesenkt): +
  Krampfstadien 4/5/6 LZ[s] (Latenzzeit bis zur Ausprägung der Krämpfe erhöht): ++

## O=C(O)Cc1ccccc1Nc1c(Cl)cccc1Cl [Diclofenac-Natrium]
[6]
  Hemmeffekte: nur noch geringe Hemmeffekte

## C[C@]12CCC3=C(CCc4cc(O)ccc43)[C@@H]1CC[C@H]2O [J 811, 8-Dehydro-17α-estradiol]
[7]
  relative Bindungsaffinität zum Estrogen-Rezeptor (RBA): 21%

## C[C@]12CCC3=C(CCc4cc(O)ccc43)[C@@]13C[C@H]3C[C@H]2O [J 861, 14,15α-Methylen-8-dehydro-17α-estradiol]
[5]; 10 mg/kg
  Krampfstadien 1/2 Kl (Krampfindex gesenkt): -
  Krampfstadien 1/2 LZ[s] (Latenzzeit bis zur Ausprägung der Krämpfe erhöht): -
  Krampfstadien 3 Kl (Krampfindex gesenkt): ++
  Krampfstadien 3 LZ[s] (Latenzzeit bis zur Ausprägung der Krämpfe erhöht): -
  Krampfstadien 4/5/6 Kl (Krampfindex gesenkt): +
  Krampfstadien 4/5/6 LZ[s] (Latenzzeit bis zur Ausprägung der Krämpfe erhöht): ++
[5]; 100 mg/kg
  Krampfstadien 1/2 Kl (Krampfindex gesenkt): -
  Krampfstadien 1/2 LZ[s] (Latenzzeit bis zur Ausprägung der Krämpfe erhöht): -
  Krampfstadien 3 Kl (Krampfindex gesenkt): ++
  Krampfstadien 3 LZ[s] (Latenzzeit bis zur Ausprägung der Krämpfe erhöht): -
  Krampfstadien 4/5/6 Kl (Krampfindex gesenkt): +
  Krampfstadien 4/5/6 LZ[s] (Latenzzeit bis zur Ausprägung der Krämpfe erhöht): ++
[5]; [8]
  Krampfstadien 1/2 Kl (Krampfindex gesenkt): -
  Krampfstadien 1/2 LZ[s] (Latenzzeit bis zur Ausprägung der Krämpfe erhöht): -
  Krampfstadien 3 Kl (Krampfindex gesenkt): +++
  Krampfstadien 3 LZ[s] (Latenzzeit bis zur Ausprägung der Krämpfe erhöht): -
  Krampfstadien 4/5/6 Kl (Krampfindex gesenkt): +
  Krampfstadien 4/5/6 LZ[s] (Latenzzeit bis zur Ausprägung der Krämpfe erhöht): +
[7]
  relative Bindungsaffinität zum Estrogen-Rezeptor (RBA): 32%
[1]
  Hemmung der Expression von VCAM-1: + + +
[2]
  Hemmung der Expression von ICAM-1: + + +
[3]; 1 mg/kg oral
  Sekundärarthritis Score: 72
  % Hemmung Primärarthritis max. Wirkung: 16%
[3]; 10 mg/kg oral
  Sekundärarthritis Score: 46
  % Hemmung Primärarthritis max. Wirkung: 38%
[3]; 25 mg/kg oral
  Sekundärarthritis Score: 38
  % Hemmung Primärarthritis max. Wirkung: 61%
[3]; 50 mg/kg oral
  Sekundärarthritis Score: 35
  % Hemmung Primärarthritis max. Wirkung: 47%
